# Data: US20050203065A1, “Method of treating ischemia reperfusion injury using adenosine receptor antagonists” (priority 2002, published 2005)
# Tests used:
# [1] = target: T1, recombinant canine A1 adenosine receptors (Canis lupus familiaris, UniProt P11616); experiment: Radioligand competition binding, canine A1 receptor (3H-CPX), transfected HEK 293 membranes
# T1 construct: expressed in transfected cells
# T1 sequence (P11616 1-326): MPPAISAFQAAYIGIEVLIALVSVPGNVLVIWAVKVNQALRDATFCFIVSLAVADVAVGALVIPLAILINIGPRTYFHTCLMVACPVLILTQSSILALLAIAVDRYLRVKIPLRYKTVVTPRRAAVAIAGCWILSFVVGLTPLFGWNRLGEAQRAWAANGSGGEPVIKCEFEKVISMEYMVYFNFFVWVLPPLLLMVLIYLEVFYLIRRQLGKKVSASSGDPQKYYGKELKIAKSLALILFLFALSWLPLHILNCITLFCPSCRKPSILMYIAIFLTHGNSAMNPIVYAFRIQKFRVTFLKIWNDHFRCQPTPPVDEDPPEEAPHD
# Procedure: (§1) Membranes (40-70 μg membrane protein), radioligands, and varying concentrations of competing ligands were incubated in triplicate in 0.1 ml buffer HE plus 2 units/mL adenosine deaminase for 2.5 hours at 21° C. The radioligands used for competitive binding assays were: [^3H]-8-cyclopentyl-1,3-dipropyxanthine ([^3H]-DPCPX) (NEN, Boston, Mass.) for A1 and A2b adenosine receptors, [^3H]-4-(2-[7-amino-2-(furyl)(1,2,4)triazole(2,3-a)(1,3,5)triazin-5-ylaminoethyly)phenol ([^3H] ZM241385) for A2a adenosine receptors (Tocris, Bristol, UK), and [^125Iodine]-labeled N6-(4-aminobenzyl)-9-(5-(methylcarbonyl)-β-D-ribofuranosyl) adenine ([^125I]-AB-MECA) or [^3H]-R-N^6-phenylisopropyladenosine (H^3R]-R-PIA) for A3 adenosine receptors (both from NEN, Boston, Mass.). Nonspecific binding was measured in the presence of 10 μM 5′N ethylcarboxamidoadenosine (NECA, from RBI-Sigma, Natick, Mass.) for A1 and A2b receptors, or 10 μM xanthine amino congener (XAC, from RBI-Sigma, Natick, Mass.) for A2a receptors. Binding assays were terminated by filtration over Whatman GF/C glass fiber filters using a BRANDEL cell harvester (Gaithersburg, Md.).
# [2] = tested on: open-chest, barbital-anesthetized dogs; experiment: Protocol II (preconditioning): four 5-minute occlusion/reperfusion cycles before 60-minute occlusion and 3 hours reperfusion in dogs; assay type: in vivo, dog
# Procedure: Preconditioning was elicited by four 5-minute occlusion/5-minute reperfusion cycles produced 10 minutes before the 60-minute occlusion.
# [3] = target: T2, human A2B adenosine receptors (Homo sapiens, UniProt P29275); experiment: FLIPR calcium functional assay, human A2b receptor in HEK-293 cells (5 μM NECA); assay type: cell-based; design: expressed in transfected cells; host or cells: HEK-293; details: HEK293 cells, null method
# T2 sequence (P29275 1-332): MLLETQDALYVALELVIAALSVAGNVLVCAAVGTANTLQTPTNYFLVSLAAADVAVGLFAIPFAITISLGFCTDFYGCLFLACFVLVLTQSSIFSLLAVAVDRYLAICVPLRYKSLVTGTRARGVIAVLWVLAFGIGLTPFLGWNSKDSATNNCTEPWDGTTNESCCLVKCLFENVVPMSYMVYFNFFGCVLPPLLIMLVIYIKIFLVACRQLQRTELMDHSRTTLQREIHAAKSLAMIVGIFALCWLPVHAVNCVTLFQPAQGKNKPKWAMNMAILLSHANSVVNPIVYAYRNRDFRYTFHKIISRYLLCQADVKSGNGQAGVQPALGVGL
# Procedure: Cells were seeded into 96-well tissue culture plates with black walls and clear bottoms, and cultured to an 80-0.90% confluent monolayer. Without removing the media, an equal volume of dye (from calcium assay kit purchased from Molecular Devices) was added. Cell plates were incubated for 1 hour at 37° C. and were then transferred to the-FLIPR unit (Molecular Devices).
# For assay of recombinant human and rat A2b adenosine receptors, HEK-293 cells were incubated with increasing doses of agonist (5′N-ethylcarboxamidoadenosine, NECA) to determine the concentration of agonst that produced 50% of a maximum response.
# The FLIPR integrates an argon laser excitation source, a 96-well pipettor, and a detection system utilizing a CCD (Charged Coupled Device) imaging camera. […] Fluorescence data were collected at 0.1-sec intervals before and after simultaneous rapid addition of compounds to the 96-well plate. Results were read as relative fluorescence units (RFU).
# In FLIPR functional assays, agonist concentration-response curves were fitted to a logistic equation by use of the nonlinear regression program in Prizm GraphPad. […] A Schild analysis was performed to estimate the potency of the compounds as antagonists (pA2). […]
# [4] = tested on: open-chest, barbital-anesthetized dogs; experiment: Protocol III (reperfusion): 60 minutes occlusion and 3 hours reperfusion, drug from 10 minutes before release of occlusion, dogs; assay type: in vivo, dog
# Procedure: (§2) The studies were performed in open-chest, barbital-anesthetized dogs instrumented to measure heart rate, blood pressure, left ventricular pressure, and regional myocardial blood flow (radioactive microspheres). A mechanical occluder was placed around a proximal portion of the left anterior descending coronary artery to produce ischemia and reperfusion. At the end of the experiments, infarct size was determined-by histochemical staining (patent blue dye and triphenyltetrazolium) and expressed as a percentage of the region at risk or as a percentage of the entire left ventricle.
# In the reperfusion protocol (see FIG. 3, protocol III), the dogs were subjected to 60 minutes of coronary artery occlusion followed by three hours of reperfusion. […] The antagonists were administered at a dose of 1 mg/kg i.v. bolus followed by an infusion of 10 μg/kg/min for one hour.
# [5] = tested on: open-chest, barbital-anesthetized dogs; experiment: Protocol I (pretreatment): 60 minutes of coronary artery occlusion and 3 hours of reperfusion in dogs
# Procedure: as §2
# In the pretreatment protocol (see FIG. 1, protocol I), the dogs were subjected to 60 minutes of coronary artery occlusion and 3 hours or reperfusion after which the hearts were removed and infarct size was assessed. […] All of the antagonists were administered at a dose of 1 mg/kg as an i.v. bolus followed by and infusion of 10 μg/kg/min continued until immediately before reperfusion (70 minutes total).
# [6] = target: T3, recombinant canine A3 adenosine receptors (Canis lupus familiaris, UniProt Q28309); experiment: Radioligand competition binding, canine A3 receptor (R-PIA), transfected HEK 293 membranes; details: mean ± SEM, n = 3
# T3 construct: expressed in transfected cells
# T3 sequence (Q28309 1-314): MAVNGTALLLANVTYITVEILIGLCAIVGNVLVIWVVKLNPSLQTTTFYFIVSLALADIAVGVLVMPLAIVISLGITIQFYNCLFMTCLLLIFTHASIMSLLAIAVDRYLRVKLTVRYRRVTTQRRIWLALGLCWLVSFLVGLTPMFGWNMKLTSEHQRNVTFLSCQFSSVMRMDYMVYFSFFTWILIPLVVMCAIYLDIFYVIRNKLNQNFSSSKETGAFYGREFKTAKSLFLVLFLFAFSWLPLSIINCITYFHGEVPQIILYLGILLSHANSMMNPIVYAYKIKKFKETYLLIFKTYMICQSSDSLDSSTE
# Procedure: as §1, with “Md.). The-filters were rinsed three times with 3-4 mL ice-cold 10 mM Tris-HCl, pH 7.4 and 5 mM magnesium chloride (MgCl2) at 4° C., and were counted in a Wallac β-counter (Perkin Elmer, Boston, Mass.).” for “Md.).”
# [7] = target: T4, recombinant canine A2a adenosine receptors (Canis lupus familiaris, UniProt P11617); experiment: Radioligand competition binding, canine A2a receptor (3H-ZM 241385), transfected HEK 293 membranes; details: canine; mean ± SEM, n = 3; 3H-ZM 241385; read-out: Ki, A2a
# T4 construct: expressed in transfected cells
# T4 sequence (P11617 whole entry): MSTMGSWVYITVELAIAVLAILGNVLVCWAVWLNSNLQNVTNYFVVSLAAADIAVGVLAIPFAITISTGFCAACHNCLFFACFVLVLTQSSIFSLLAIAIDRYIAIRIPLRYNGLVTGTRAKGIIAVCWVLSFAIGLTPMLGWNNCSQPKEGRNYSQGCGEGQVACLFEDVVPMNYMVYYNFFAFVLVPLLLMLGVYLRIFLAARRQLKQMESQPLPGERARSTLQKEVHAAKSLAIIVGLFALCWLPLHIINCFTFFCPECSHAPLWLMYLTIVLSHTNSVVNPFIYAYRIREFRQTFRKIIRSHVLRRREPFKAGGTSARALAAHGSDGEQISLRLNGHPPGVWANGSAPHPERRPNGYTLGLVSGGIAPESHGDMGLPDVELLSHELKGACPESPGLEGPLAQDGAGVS
# Procedure: Membranes (40-70 μg membrane protein), radioligands, and varying concentrations of competing ligands were incubated in triplicate in 0.1 ml buffer HE plus 2 units/mL adenosine deaminase for 2.5 hours at 21° C. […] Nonspecific binding was measured in the presence of 10 μM 5′N ethylcarboxamidoadenosine (NECA, from RBI-Sigma, Natick, Mass.) for A1 and A2b receptors, or 10 μM xanthine amino congener (XAC, from RBI-Sigma, Natick, Mass.) for A2a receptors. Binding assays were terminated by filtration over Whatman GF/C glass fiber filters using a BRANDEL cell harvester (Gaithersburg, Md.).
smiles,measurement,setting,value
"CCCn1c(=O)c2[nH]c(C34CCC(CCC(=O)O)(CC3)CC4)nc2n(CCC)c1=O [BG 9928, 3-[4-(2,6-dioxo-1,3-dipropyl-2,3,6,7-tetrahydro-1H-purin-8-yl)-bicyclo[2.2.2]oct-1-yl]-propionic acid]",Ki,[1],28.9 ± 4.1 nM
same,Addition to the protective effect of ischemic preconditioning,[2]; Protocol II,added to the protective effect
same,Relationship between infarct size and collateral blood flow compared to preconditioned control,[2]; Protocol II (preconditioning),shifted downward further
same,Effect on the protective effects of ischemic preconditioning,"[2]; Protocol II, 1 mg/kg i.v. bolus + 10 μg/kg/min",did not block
same,Kb,[3],3.36 nM
same,"Infarct size expressed as a percentage of the entire left ventricle, in words",[4],a significant reduction in infarct size was not observed
same,Relationship between infarct size and collateral blood flow compared to control group,[4],shifted downward
same,Reduction in infarct size (percentage of the risk region),[4]; 1 mg/kg i.v. bolus + 10 μg/kg/min for one hour from 10 minutes before release of occlusion,44%
same,"Infarct size expressed as a percentage of the risk region, in words",[4]; administration during the early phase of reperfusion,reduced significantly
same,Relationship between infarct size and transmural collateral blood flow compared to control group,[5],shifted downward
same,"Infarct size (percentage of risk region or of left ventricle) compared with control, in words","[5]; 1 mg/kg i.v. bolus + 10 μg/kg/min from 10 minutes before occlusion, 1 mg/kg",significantly smaller
same,Infarct size reduction,"[5]; 1 mg/kg i.v. bolus + 10 μg/kg/min from 10 minutes before occlusion, vs control",49%
same,Ki,[6],37700 nM
same,Ki,[7],4310 nM
